{"source": "ChEMBL document CHEMBL6153118", "about": "“Structure Optimization of Natural Product Catalpol to Obtain Novel and Potent Analogs against Heart Failure” (J Med Chem, 2025)", "key": {"CYP2C9": {"biological_target": "CYP2C9 (Homo sapiens, UniProt P11712)", "sequence (P11712 whole entry)": "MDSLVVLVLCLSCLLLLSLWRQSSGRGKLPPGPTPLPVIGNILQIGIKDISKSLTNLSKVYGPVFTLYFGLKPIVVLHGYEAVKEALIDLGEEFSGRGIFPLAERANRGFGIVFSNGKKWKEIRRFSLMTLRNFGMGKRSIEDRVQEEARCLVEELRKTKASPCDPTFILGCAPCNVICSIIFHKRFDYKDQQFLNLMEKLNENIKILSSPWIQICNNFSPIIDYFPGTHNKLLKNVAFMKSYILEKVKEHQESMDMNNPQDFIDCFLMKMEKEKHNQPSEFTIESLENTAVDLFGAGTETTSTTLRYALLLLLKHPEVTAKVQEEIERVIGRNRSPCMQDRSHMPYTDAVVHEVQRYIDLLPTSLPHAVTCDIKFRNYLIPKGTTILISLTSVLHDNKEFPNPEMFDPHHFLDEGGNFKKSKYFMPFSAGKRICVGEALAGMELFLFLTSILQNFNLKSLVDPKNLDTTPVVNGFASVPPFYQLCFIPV", "assay": "Inhibition of CYP2C9 in human liver microsomes preincubated for 10 mins followed by NADPH addition measured after 10 mins by LC/MS/MS analysis relative to control", "assay_type": "ADME, Microsome", "conditions": "time 20 min"}, "CYP1A2": {"biological_target": "T1, CYP1A2 (Homo sapiens, UniProt P05177)", "T1 sequence (P05177 whole entry)": "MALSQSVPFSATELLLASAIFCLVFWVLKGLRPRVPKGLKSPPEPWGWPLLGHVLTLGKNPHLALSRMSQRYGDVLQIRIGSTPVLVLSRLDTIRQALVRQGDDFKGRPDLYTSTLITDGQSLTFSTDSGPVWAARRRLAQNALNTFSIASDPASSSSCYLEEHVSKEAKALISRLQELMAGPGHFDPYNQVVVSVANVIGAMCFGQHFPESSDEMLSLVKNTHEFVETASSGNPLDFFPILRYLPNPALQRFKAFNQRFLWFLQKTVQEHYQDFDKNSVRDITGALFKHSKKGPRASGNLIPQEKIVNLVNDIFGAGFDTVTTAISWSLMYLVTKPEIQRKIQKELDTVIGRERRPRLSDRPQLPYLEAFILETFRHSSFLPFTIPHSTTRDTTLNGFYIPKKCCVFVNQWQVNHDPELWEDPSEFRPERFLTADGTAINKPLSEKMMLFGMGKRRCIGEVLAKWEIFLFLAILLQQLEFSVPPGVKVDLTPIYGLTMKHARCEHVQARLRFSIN", "assay": "Inhibition of CYP1A2 in human liver microsomes preincubated for 10 mins followed by NADPH addition measured after 10 mins by LC/MS/MS analysis relative to control", "assay_type": "ADME, Microsome", "conditions": "time 20 min"}, "H9c2 [1]": {"system": "H9c2", "assay": "Inhibition of apoptosis in ISO-treated rat H9c2 cells assessed as increase in Bcl-2 level by Western blot analysis", "assay_type": "functional, cell-based", "conditions": "dose 5-50 µM"}, "[2]": {"assay": "Tmax in C57/6J mouse at 5 mg/kg, iv measured for 24 hrs", "assay_type": "ADME, organism-based", "conditions": "in vivo"}, "[3]": {"assay": "Toxicity in C57BL/6J mouse assessed as animal mortality at 400 mg/kg, po administered as single dose measured for 7 days", "assay_type": "organism-based", "conditions": "in vivo, 168 h, time 7 day"}, "Mus musculus [4]": {"system": "Mus musculus", "assay": "Cardioprotective activity in ISO-induced heart failure C57BL/6J mouse assessed as fractional shortening in heart at 20 mg/kg/day, po for 14 days by echocardiography (reference value: 24.49 +/- 1.49 %)", "assay_type": "functional", "conditions": "time 14 day"}, "H9c2 [5]": {"system": "H9c2", "assay": "Inhibition of cardiomyocyte hypertrophy in rat H9c2 cells assessed as decrease in ISO-induced ANP level at 50 uM by Western blot analysis", "assay_type": "functional, cell-based"}, "[6]": {"assay": "Half life in C57/6J mouse at 5 mg/kg, iv measured for 24 hrs", "assay_type": "ADME, organism-based", "conditions": "in vivo"}, "[7]": {"assay": "Toxicity in C57BL/6J mouse assessed as signs of morbidity at 400 mg/kg, po administered as single dose measured for 7 days", "assay_type": "organism-based", "conditions": "in vivo, 168 h, time 7 day"}, "[8]": {"assay": "Half life in C57/6J mouse at 20 mg/kg, po measured for 24 hrs", "assay_type": "ADME, organism-based", "conditions": "in vivo"}, "Cardiac muscle cell": {"system": "Cardiac muscle cell", "assay": "Cytoprotective activity against OGD-induced myocardial ischemic injury in neonatal rat primary cardiomyocytes assessed as decrease in cellular damage at 1 uM preincubated for 12 hrs followed by exposure to OGD condition for 3 hrs", "assay_type": "functional, cell-based", "conditions": "time 15.0 hrs"}, "CYP2D6": {"biological_target": "CYP2D6 (Homo sapiens, UniProt P10635)", "sequence (P10635 whole entry)": "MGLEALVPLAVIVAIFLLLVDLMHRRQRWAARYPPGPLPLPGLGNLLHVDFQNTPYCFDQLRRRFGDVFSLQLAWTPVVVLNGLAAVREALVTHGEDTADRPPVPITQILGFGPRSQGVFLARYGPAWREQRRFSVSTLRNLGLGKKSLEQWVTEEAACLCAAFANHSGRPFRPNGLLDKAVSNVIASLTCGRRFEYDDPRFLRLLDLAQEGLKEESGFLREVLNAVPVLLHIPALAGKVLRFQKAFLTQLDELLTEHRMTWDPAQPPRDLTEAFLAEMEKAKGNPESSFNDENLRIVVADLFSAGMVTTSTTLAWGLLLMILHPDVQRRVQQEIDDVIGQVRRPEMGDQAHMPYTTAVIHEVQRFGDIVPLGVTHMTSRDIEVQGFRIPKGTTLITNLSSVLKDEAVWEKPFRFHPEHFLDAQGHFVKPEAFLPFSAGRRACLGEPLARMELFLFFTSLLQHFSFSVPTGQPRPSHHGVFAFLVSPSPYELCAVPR", "assay": "Inhibition of CYP2D6 in human liver microsomes preincubated for 10 mins followed by NADPH addition measured after 10 mins by LC/MS/MS analysis relative to control", "assay_type": "ADME, Microsome", "conditions": "time 20 min"}, "H9c2 [9]": {"system": "H9c2", "assay": "Cytoprotective activity against OGD-induced myocardial ischemic injury in rat H9c2 cells assessed as decrease in ROS level at 5 to 50 uM preincubated for 12 hrs followed by exposure to OGD condition for 3 hrs by DCFH-DA probe based analysis", "assay_type": "functional, cell-based", "conditions": "dose 5-50 µM, time 15.0 hrs"}, "[10]": {"assay": "AUC (0 to t) in C57/6J mouse at 5 mg/kg, iv measured for 24 hrs", "assay_type": "ADME, organism-based", "conditions": "in vivo"}, "H9c2 [11]": {"system": "H9c2", "assay": "Inhibition of cardiomyocyte hypertrophy in ISO-treated rat H9c2 cells at 50 uM preincubated for 12 hrs followed by ISO treatment for 36 hrs by FITC-Phalloidin staining based analysis", "assay_type": "functional, cell-based", "conditions": "time 48.0 hrs"}, "[12]": {"assay": "Cmax in C57/6J mouse at 5 mg/kg, iv measured for 24 hrs", "assay_type": "ADME, organism-based", "conditions": "in vivo"}, "H9c2 [13]": {"system": "H9c2", "assay": "Cytoprotective activity against OGD-induced myocardial ischemic injury in rat H9c2 cells assessed as cell viability at 5 uM preincubated for 12 hrs followed by exposure to OGD condition for 3 hrs by CCK8 assay (reference value: 49.23 to 50.05 %)", "assay_type": "functional", "conditions": "time 15 hrs, read-out: Activity"}, "[14]": {"biological_target": "Voltage-gated inwardly rectifying potassium channel KCNH2 (Homo sapiens, UniProt Q12809)", "sequence (Q12809 whole entry)": "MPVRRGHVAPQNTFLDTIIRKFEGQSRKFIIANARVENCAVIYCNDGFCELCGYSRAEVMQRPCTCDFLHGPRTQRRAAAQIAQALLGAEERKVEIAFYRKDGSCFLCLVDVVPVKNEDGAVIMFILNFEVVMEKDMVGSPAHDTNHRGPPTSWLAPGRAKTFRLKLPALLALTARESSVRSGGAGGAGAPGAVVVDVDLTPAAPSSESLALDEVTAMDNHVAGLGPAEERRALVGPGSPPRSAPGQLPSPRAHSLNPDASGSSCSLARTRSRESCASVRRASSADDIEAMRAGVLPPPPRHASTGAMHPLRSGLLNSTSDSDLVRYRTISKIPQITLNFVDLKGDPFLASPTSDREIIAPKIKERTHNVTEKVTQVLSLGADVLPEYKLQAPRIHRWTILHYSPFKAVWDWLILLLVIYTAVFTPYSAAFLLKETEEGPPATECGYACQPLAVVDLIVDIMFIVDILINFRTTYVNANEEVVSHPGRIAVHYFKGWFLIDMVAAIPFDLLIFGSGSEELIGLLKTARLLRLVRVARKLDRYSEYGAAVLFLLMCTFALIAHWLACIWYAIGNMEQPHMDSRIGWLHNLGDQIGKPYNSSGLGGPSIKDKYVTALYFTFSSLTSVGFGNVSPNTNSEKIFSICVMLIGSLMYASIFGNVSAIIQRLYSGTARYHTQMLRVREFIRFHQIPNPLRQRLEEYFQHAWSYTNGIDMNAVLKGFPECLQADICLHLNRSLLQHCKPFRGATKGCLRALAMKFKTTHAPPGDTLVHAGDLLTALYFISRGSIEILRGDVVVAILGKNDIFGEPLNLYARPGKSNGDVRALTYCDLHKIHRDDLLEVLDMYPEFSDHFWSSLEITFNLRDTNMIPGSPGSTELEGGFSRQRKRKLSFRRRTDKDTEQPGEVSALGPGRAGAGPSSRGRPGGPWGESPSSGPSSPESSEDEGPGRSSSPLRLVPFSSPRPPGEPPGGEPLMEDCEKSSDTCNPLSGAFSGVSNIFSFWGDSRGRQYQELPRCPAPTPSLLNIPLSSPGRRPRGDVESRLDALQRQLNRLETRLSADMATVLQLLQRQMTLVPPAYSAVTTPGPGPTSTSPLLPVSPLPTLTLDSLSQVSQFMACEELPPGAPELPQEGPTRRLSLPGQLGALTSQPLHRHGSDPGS", "assay": "Inhibition of hERG at 30 uM", "assay_type": "toxicity"}, "Mus musculus [15]": {"system": "Mus musculus", "assay": "Inhibition of cardiomyocyte hypertrophy in ISO-induced heart failure C57BL/6J mouse assessed as decrease in ANP level administered orally daily for 14 days by Western blot analysis", "assay_type": "functional, organism-based", "conditions": "dose 5-20 mg/kg/day, route po, time 14.0 day"}, "Mus musculus [16]": {"system": "Mus musculus", "assay": "Inhibition of cardiomyocyte hypertrophy in ISO-induced heart failure C57BL/6J mouse at 5 to 20 mg/kg/day, po for 14 days", "assay_type": "functional, organism-based", "conditions": "dose 5-20 mg/kg/day, time 14.0 day"}}, "note": "The source made the active and inactive calls. No cut-off for these calls is given here."}
{"smiles": "OC[C@H]1O[C@@H](O[C@@H]2OC=C[C@H]3[C@H](O)[C@@H]4O[C@]4(COc4ccc(C(F)(F)F)cc4)[C@@H]23)[C@H](O)[C@@H](O)[C@@H]1O", "values": [{"measurement": "inhibition at 10 min", "setting": "CYP2C9", "value": 6.3, "unit": "%"}, {"measurement": "inhibition at 10 min", "setting": "CYP1A2", "value": 8, "unit": "%"}, {"measurement": "inhibition", "setting": "H9c2 [1]", "value": "Dose-dependent-effect"}, {"measurement": "Tmax", "setting": "[2]", "value": 4.98, "unit": "min"}, {"measurement": "Activity", "setting": "[3]", "value": "Non-toxic"}, {"measurement": "Activity", "setting": "Mus musculus [4]", "value": 31.27, "unit": "%"}, {"measurement": "inhibition", "setting": "H9c2 [5]", "value": "Active"}, {"measurement": "half-life", "setting": "[6]", "value": 57, "unit": "min"}, {"measurement": "Activity", "setting": "[7]", "value": "Non-toxic"}, {"measurement": "half-life", "setting": "[8]", "value": 60.6, "unit": "min"}, {"measurement": "Activity", "setting": "Cardiac muscle cell", "value": "Active; Exhibited Moderate Effect"}, {"measurement": "inhibition at 10 min", "setting": "CYP2D6", "value": 4.3, "unit": "%"}, {"measurement": "Activity", "setting": "H9c2 [9]", "value": "Active"}, {"measurement": "AUC(0-t) at 24 h", "setting": "[10]", "value": 1090, "unit": "ng·h/mL"}, {"measurement": "inhibition", "setting": "H9c2 [11]", "value": "Active"}, {"measurement": "Cmax", "setting": "[12]", "value": 2710, "unit": "ng/mL"}, {"measurement": "viability at 5 µM", "setting": "H9c2 [13]", "value": 64.6, "unit": "%"}, {"measurement": "inhibition (INH)", "setting": "[14]", "value": "Not_active"}, {"measurement": "inhibition", "setting": "Mus musculus [15]", "value": "Dose-dependent-effect; Restored Anp Level To Physiological Level"}, {"measurement": "inhibition", "setting": "Mus musculus [16]", "value": "Active; Exhibited Pronounced Therapeutic Effect Compared To Catal-Pol"}]}
